Data taken from ChEMBL document CHEMBL1150028, “-((Tetronoyl)oxy)- and -((tetramoyl)oxy)methyl ketone inhibitors of the interleukin-1 converting enzyme (ICE)” (Bioorg Med Chem Lett, 1997).

Legend:
Caspase-1 (Homo sapiens) = biological target: T1, Caspase-1 (Homo sapiens) (UniProt P29466); assay: Inhibitory activity against IL-1 beta converting enzyme was determined
T1 sequence (whole entry): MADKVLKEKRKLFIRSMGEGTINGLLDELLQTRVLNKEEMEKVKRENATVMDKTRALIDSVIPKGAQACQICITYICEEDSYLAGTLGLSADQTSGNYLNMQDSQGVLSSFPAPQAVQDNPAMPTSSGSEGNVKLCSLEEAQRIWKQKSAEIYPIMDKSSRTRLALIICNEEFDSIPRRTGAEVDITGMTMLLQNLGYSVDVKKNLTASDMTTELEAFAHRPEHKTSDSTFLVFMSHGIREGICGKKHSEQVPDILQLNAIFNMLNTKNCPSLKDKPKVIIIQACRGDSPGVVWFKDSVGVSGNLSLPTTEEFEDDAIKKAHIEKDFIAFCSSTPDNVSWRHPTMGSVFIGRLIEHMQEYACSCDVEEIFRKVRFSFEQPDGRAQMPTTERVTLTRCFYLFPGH

[1] = Stability of compound was determined by its half life period; type: physicochemical

K obs / 1 (Caspase-1 (Homo sapiens))	half-life [1]	SMILES
7100 M⁻¹ s⁻¹		O=C(O)C[C@H](NC(=O)OCc1ccccc1)C(=O)COC(=O)c1c(Cl)cccc1Cl
3070 M⁻¹ s⁻¹	3.9 h	O=C(O)C[C@H](NC(=O)OCc1ccccc1)C(=O)COC1=C(c2ccccc2)C(=O)CC1
188 M⁻¹ s⁻¹		O=C(O)C[C@H](NC(=O)OCc1ccccc1)C(=O)COC1=CC(=O)OC1
4000 M⁻¹ s⁻¹		COc1ccc(C2=C(OCC(=O)[C@H](CC(=O)O)NC(=O)OCc3ccccc3)COC2=O)cc1
640 M⁻¹ s⁻¹		O=C(O)C[C@H](NC(=O)OCc1ccccc1)C(=O)COC1=C(c2ccc(Cl)c(Cl)c2)C(=O)OC1
4500 M⁻¹ s⁻¹		Cc1ccc(C2=C(OCC(=O)[C@H](CC(=O)O)NC(=O)OCc3ccccc3)COC2=O)cc1
21200 M⁻¹ s⁻¹		CC(C)[C@H](NC(=O)OCc1ccccc1)C(=O)N[C@@H](CC(=O)O)C(=O)COC1=C(Cc2ccccc2)C(=O)OC1
41000 M⁻¹ s⁻¹		CC(C)[C@H](NC(=O)OCc1ccccc1)C(=O)N[C@@H](CC(=O)O)C(=O)COC(=O)c1c(Cl)cccc1Cl
27900 M⁻¹ s⁻¹		CC(C)[C@H](NC(=O)OCc1ccccc1)C(=O)N[C@@H](CC(=O)O)C(=O)COC1=C(c2ccccc2)C(=O)OC1
260 M⁻¹ s⁻¹		CC1(C)OC(=O)C(c2ccccc2)=C1OCC(=O)[C@H](CC(=O)O)NC(=O)OCc1ccccc1
2850 M⁻¹ s⁻¹	9.8 h	O=C(O)C[C@H](NC(=O)OCc1ccccc1)C(=O)COC1=C(Cc2ccccc2)C(=O)OC1
8500 M⁻¹ s⁻¹	95 h	CC(C)[C@H](NC(=O)OCc1ccccc1)C(=O)N[C@@H](CC(=O)O)C(=O)COC1=C(c2ccccc2)C(=O)NC1
5700 M⁻¹ s⁻¹	0.86 h	O=C(O)C[C@H](NC(=O)OCc1ccccc1)C(=O)COC1=C(c2ccccc2)C(=O)OC1
4100 M⁻¹ s⁻¹		O=C(O)C[C@H](NC(=O)OCc1ccccc1)C(=O)COC1=C(c2ccc(Cl)cc2)C(=O)OC1
< 25 M⁻¹ s⁻¹		O=C(O)C[C@H](NC(=O)OCc1ccccc1)C(=O)COC1=C(Cl)C(=O)OC1
	20 h	CC(C)[C@H](NC(=O)OCc1ccccc1)C(=O)N[C@@H](C)C(=O)N[C@@H](CC(=O)O)C(=O)COC1=C(Cc2ccccc2)C(=O)OC1
